The structures appear in SMILES notation. Where two headings read alike, the source gives them in different places.

The test system of the assay is HCV 1b replication (bicistronic genotype 1b replicon in Huh 7 cells). In words: HCV 1b replicon assay (1b_Huh-Luc/Neo-ET cell line, luciferase readout). The format is cell-based. To be noted: Hepatitis C virus. How it is done:
Biological activity of the compounds of the invention was determined using an HCV replicon assay. The 1b_Huh-Luc/Neo-ET cell line persistently expressing a bicistronic genotype 1b replicon in Huh 7 cells was obtained from ReBLikon GMBH. This cell line was used to test compound inhibition using luciferase enzyme activity readout as a measurement of compound inhibition of replicon levels.
On Day 1 (the day after plating), each compound was added in triplicate to the cells. Plates were incubated for 72 hours prior to running the luciferase assay. Enzyme activity was measured using a Bright-Glo Kit (cat. number E2620) manufactured by Promega Corporation. The following equation was used to generate a percent control value for each compound. % Control=(Average Compound Value/Average Control)*100
The EC50 value was determined using GraphPad Prism and the following equation: Y=Bottom+(Top-Bottom)/(1+10^((Log IC50−X)*HillSlope))
EC50 values of compounds were repeated several times in the replicon assay.
On the technique in general: A replicon is a self-replicating genome or part of one, used to study replication in cells.

The mark [1] stands for this setting: Huh-7, 1b_Huh-Luc/Neo-ET cell line, 72 hours, luciferase readout, read-out: EC50, concentration effective to produce a half-maximal inhibition of HCV 1b replication.
The mark [2] stands for this setting: Huh-7, class symbols, genotype 1b replicon, read-out: Inhibition of HCV genotype 1b replicon.
Setting [3] is: Huh-7, numeric EC50, genotype 1b replicon, read-out: Inhibition of HCV genotype 1b replicon (EC50).

As to `CNC(=O)c1c(-c2ccc(F)cc2F)oc2cc3c(cc12)C(CO)CCCN3S(C)(=O)=O` (stereo not shown) [Compound B36], the EC50 runs as follows: under setting [1], 10 to 100 nM; under setting [2], 10 to 100 nM. As for `CNC(=O)c1c(-c2ccc(F)cc2)oc2cc3c(cc12)[C@H](C)O[C@@H](CO)CN3S(C)(=O)=O` [Compound B274], the EC50 under setting [2] fell in the range of 10 to 100 nM. Regarding `CNC(=O)c1c(-c2ccc(F)cc2)oc2cc3c(cc12)[C@H](C)O[C@H](COC(=O)COCCOCCOC)CN3S(C)(=O)=O` [Compound B256], the EC50 under setting [1] is at most 10 nM and the EC50 under setting [2] was under 10 nM.

As for `CNC(=O)c1c(-c2ccc(F)cc2)oc2cc3c(cc12)[C@H](C)O[C@H](COCCOCCOC)CN3S(C)(=O)=O` [Compound B268], the EC50 was at most 10 nM under setting [1] and under 10 nM under setting [2]. The corresponding values for `C=C1CCCN(S(C)(=O)=O)c2cc3oc(-c4ccc(F)cc4)c(C(=O)NC)c3cc21` [Compound B4] are 10 to 100 nM and 10 to 100 nM.

`CNC(=O)c1c(-c2ccc(F)cc2)oc2cc3c(cc12)C(O)CCCN3S(C)(=O)=O` (stereo not shown) [Compound B8]: the EC50 under setting [3] was 106 nM. Take `CNC(=O)c1c(-c2ccc(F)cc2)oc2cc3c(cc12)[C@H](C)O[C@H](COC[C@H]1COC(C)(C)O1)CN3S(C)(=O)=O` [Compound B275]: the EC50 under setting [1] is at most 10 nM and the EC50 under setting [2] is under 10 nM. The corresponding values for `CNC(=O)c1c(-c2ccc(Oc3ccc(F)cc3)cc2)oc2cc3c(cc12)[C@H](C)O[C@H](COC(=O)CN)CN3S(C)(=O)=O` [Compound B254] are at most 10 nM and under 10 nM.

For the compound `CNC(=O)c1c(-c2ccc(F)cc2)oc2cc3c(cc12)[C@H](C)O[C@H](CO[C@@H]1CCOC1)CN3S(C)(=O)=O` [Compound B286], the EC50 under setting [1] was at most 10 nM and the EC50 under setting [2] is under 10 nM. The matching figures for `CONC(=O)c1c(-c2ccc(F)cc2)oc2cc3c(cc12)[C@H](C)O[C@H](CO)CN3S(C)(=O)=O` [Compound B257]: at most 10 nM and under 10 nM. The matching figures for `CNC(=O)c1c(-c2ccc(F)cc2)oc2cc3c(cc12)[C@H](C)O[C@H](CO[C@H]1CCOC1)CN3S(C)(=O)=O` [Compound B285]: at most 10 nM and under 10 nM.

`CNC(=O)c1c(-c2ccc(F)cc2)oc2cc3c(cc12)[C@H](C)O[C@H](COC(=O)[C@H](N)C(C)C)CN3S(C)(=O)=O` [Compound B282]: the EC50 was at most 10 nM under setting [1] and under 10 nM under setting [2]. Consider `CNC(=O)c1c(-c2ccccc2F)oc2cc3c(cc12)C(C)CCCN3S(C)(=O)=O` (stereo not shown) [Compound B33], for which the EC50 was at most 10 nM under setting [1] and under 10 nM under setting [2]. The corresponding values for `CNC(=O)c1c(-c2ccc(Oc3ccc(F)cc3)cc2)oc2cc3c(cc12)[C@H](C)O[C@H](COC(=O)C(C)(C)C)CN3S(C)(=O)=O` [Compound B244] are at most 10 nM and under 10 nM.

Consider `CNC(=O)c1c(-c2ccc(F)cc2)oc2cc3c(cc12)CCN3S(C)(=O)=O` [Compound B21], for which, under setting [2], the EC50 lay in the range of 100 to 1000 nM. Still for that read-out and setting: the value for `CN/C(=N\O)c1c(-c2ccc(F)cc2)oc2cc3c(cc12)[C@H](C)O[C@H](CS(C)(=O)=O)CN3S(C)(=O)=O` [Compound B283] was 100 to 1000 nM. Consider `CNC(=O)c1c(-c2ccc(F)cc2)oc2cc3c(cc12)[C@H](C)O[C@H](COC(=O)[C@@H](N)C(C)C)CN3S(C)(=O)=O` [Compound B248], for which the EC50 is, setting by setting: under setting [1], at most 10 nM; under setting [2], under 10 nM. For the compound `CNC(=O)c1c(-c2ccc(F)cc2)oc2cc3c(cc12)[C@H](C)O[C@H](COC(=O)[C@@H](N)Cc1ccccc1)CN3S(C)(=O)=O` [Compound B278], the EC50 was at most 10 nM under setting [1] and under 10 nM under setting [2]. The corresponding values for `CNC(=O)c1c(-c2ccc(Oc3ccc(F)cc3)cc2)oc2cc3c(cc12)[C@H](C)O[C@H](COC(=O)CCC(=O)O)CN3S(C)(=O)=O` [Compound B245] are at most 10 nM and under 10 nM. On to `CNC(=O)c1c(-c2ccc(F)cc2)oc2cc3c(cc12)[C@H](C)O[C@H](COC(=O)[C@@H](N)c1ccccc1)CN3S(C)(=O)=O` [Compound B272], for which the EC50 reads like this: under setting [1], at most 10 nM; under setting [2], under 10 nM.

In the case of `CNC(=O)c1c(-c2ccc(F)cc2)oc2cc3c(cc12)[C@@H](C)CCCN3S(C)(=O)=O` [Compound B16], the EC50 by setting is: under setting [1], 10 to 100 nM; under setting [3], 45.7 nM. The matching figures for `C=C1CCCN(S(C)(=O)=O)c2cc3oc(-c4ccc(F)cc4F)c(C(=O)NC)c3cc21` [Compound B29]: 10 to 100 nM and 56.1 nM. Take `CNC(=O)c1c(-c2ccc(F)cc2)oc2cc3c(cc12)[C@H](C)O[C@H](COC)CN3S(C)(=O)=O` [Compound B260]: the EC50 was at most 10 nM under setting [1] and under 10 nM under setting [2].

`CC[C@H](C)[C@H](N)C(=O)OC[C@@H]1CN(S(C)(=O)=O)c2cc3oc(-c4ccc(F)cc4)c(C(=O)NC)c3cc2[C@H](C)O1` [Compound B269]: the EC50 is, setting by setting: under setting [1], at most 10 nM; under setting [2], under 10 nM. The corresponding values for `CNC(=O)c1c(-c2ccc(F)cc2)oc2cc3c(cc12)[C@H](C)O[C@H](COC(=O)[C@@H]1CCCN1)CN3S(C)(=O)=O` [Compound B266] are at most 10 nM and under 10 nM. The matching figures for `CNC(=O)c1c(-c2ccc(F)cc2)oc2cc3c(cc12)[C@H](C)O[C@@H](CS(C)(=O)=O)CN3S(C)(=O)=O` [Compound B287]: 10 to 100 nM and 10 to 100 nM. The matching figures for `CNC(=O)c1c(-c2ccc(F)cc2)oc2cc3c(cc12)[C@H](C)O[C@H](COC(=O)[C@@H](C)N)CN3S(C)(=O)=O` [Compound B273]: at most 10 nM and under 10 nM. On to `CNC(=O)c1c(-c2ccc(F)cc2)oc2cc3c(cc12)[C@H](C)O[C@H](COC(=O)N1CCC(N2CCCCC2)CC1)CN3S(C)(=O)=O` [Compound B276], for which the EC50 under setting [1] was at most 10 nM and the EC50 under setting [2] is under 10 nM. For `CNC(=O)c1c(-c2ccc(Oc3ccc(F)cc3)cc2)nn2cc3c(cc12)C(C)OC(CO)CN3S(C)(=O)=O` (stereo not shown) [Compound B250], under setting [2], the EC50 was 10 to 100 nM. For `CNC(=O)c1c(-c2ccc(F)cc2)oc2cc3c(cc12)[C@H](C)O[C@H](COC(=O)COCCOCCOCCOC)CN3S(C)(=O)=O` [Compound B258], the EC50 was at most 10 nM under setting [1] and under 10 nM under setting [2]. The matching figures for `CNC(=O)c1c(-c2ccc(F)cc2)oc2cc3c(cc12)[C@H](C)O[C@H](COC(=O)[C@@H](N)Cc1cnc[nH]1)CN3S(C)(=O)=O` [Compound B277]: at most 10 nM and under 10 nM. On to `CNC(=O)c1c(-c2ccc(F)cc2)oc2cc3c(cc12)[C@H](C)O[C@H](COC(=O)c1cccnc1)CN3S(C)(=O)=O` [Compound B263], for which the EC50 under setting [1] is at most 10 nM and the EC50 under setting [2] was under 10 nM. The matching figures for `CNC(=O)c1c(-c2ccc(F)cc2)oc2cc3c(cc12)[C@H](C)O[C@H](COC(=O)[C@@H](N)CO)CN3S(C)(=O)=O` [Compound B281]: at most 10 nM and under 10 nM.

With `CNC(=O)c1c(-c2ccc(F)cc2)oc2cc3c(cc12)[C@H](C)O[C@H](COC(=O)[C@@H](N)[C@@H](C)OC)CN3S(C)(=O)=O` [Compound B270], the EC50 reads like this: under setting [1], at most 10 nM; under setting [2], under 10 nM.

`CNC(=O)c1c(-c2ccc(F)cc2)oc2cc3c(cc12)[C@H](C)O[C@H](COC(=O)CC1CCNCC1)CN3S(C)(=O)=O` [Compound B264]: the EC50 under setting [1] is 10 to 100 nM and the EC50 under setting [2] lay within 10 to 100 nM.

Turning to `CNC(=O)c1c(-c2ccc(F)cc2F)oc2cc3c(cc12)C(C)CCCN3S(C)(=O)=O` (stereo not shown) [Compound B35], the EC50 under setting [1] is at most 10 nM and the EC50 under setting [2] is under 10 nM. The corresponding values for `CNC(=O)c1c(-c2ccc(Oc3ccc(F)cc3)cc2)oc2cc3c(cc12)[C@H](C)O[C@H](COC(=O)c1cccnc1)CN3S(C)(=O)=O` [Compound B246] are at most 10 nM and under 10 nM. The corresponding values for `CNC(=O)c1c(-c2ccc(F)cc2)oc2cc3c(cc12)[C@H](C)O[C@H](COP(=O)(O)O)CN3S(C)(=O)=O` [Compound B255] are at most 10 nM and under 10 nM. The corresponding values for `CNC(=O)c1c(-c2ccc(F)cc2)oc2cc3c(cc12)[C@H](C)O[C@H](COC(=O)CN)CN3S(C)(=O)=O` [Compound B253] are at most 10 nM and under 10 nM. With `CNC(=O)c1c(-c2ccc(F)cc2F)oc2cc3c(cc12)C(C)=CCCN3S(C)(=O)=O` [Compound B34], the EC50 under setting [1] lay within 10 to 100 nM and the EC50 under setting [2] fell in the range of 10 to 100 nM. As for `CNC(=O)c1c(-c2ccc(F)cc2)oc2cc3c(cc12)C(C)=CCCN3S(C)(=O)=O` [Compound B6], the EC50 under setting [1] lay in the range of 10 to 100 nM and the EC50 under setting [2] fell in the range of 10 to 100 nM. Regarding `CNC(=O)c1c(-c2ccc(F)cc2)oc2cc3c(cc12)[C@H](C)O[C@H](COC(=O)C1CCNCC1)CN3S(C)(=O)=O` [Compound 8265], the EC50 is under 10 nM (Huh-7, read-out: Inhibition of HCV genotype 1b replicon) and at most 10 nM under setting [1]. With `CNC(=O)c1c(-c2ccccc2F)oc2cc3c(cc12)C(C)=CCCN3S(C)(=O)=O` [Compound B32], the EC50 under setting [1] lay within 10 to 100 nM and the EC50 under setting [2] is 10 to 100 nM. In the case of `CNC(=O)c1c(-c2ccc(Oc3ccc(F)cc3)cc2)nn2cc3c(cc12)C(C)OC(CS(C)(=O)=O)CN3S(C)(=O)=O` (stereo not shown) [Compound B251], the EC50 under setting [2] is 10 to 100 nM.

For the origin of these results see patent US9085587B2, “Inhibitors of hepatitis C virus” (priority 2010, dated 2015).
